Experiments:
[1] = test system: primary cultured mouse chondrocytes; experiment: mRNA and protein levels of cartilage-specific matrix genes in primary cultured mouse chondrocytes; format: cell-based; settings: for expression of cartilage-specific matrix genes: chondrocytes treated with drugs, mRNA and protein levels (FIG. 1f, g)
Method: Primary culture of mouse articular chondrocytes. For the primary culture of mouse articular chondrocytes, cells were isolated from femoral condyles and tibial plateaus of 4-5-day-old ICR mice, as described previously^83. Chondrocytes were maintained in DMEM supplemented with 10% fetal bovine serum (FBS), 100 units/ml penicillin, and 100 μg/ml streptomycin, and cells were treated as indicated in each experiment. Transfection was performed with […] PRO (Biontex) according to the manufacturer's protocol. All siRNAs, including negative control siRNA, were purchased from Bioneer. Recombinant mouse Wnt-3a (315-20) was purchased from PeproTech, and recombinant mouse Dkk-1 (5897-DK) was purchased from R&D Systems.
RT-PCR and qPCR. Total RNAs were extracted using TRI reagent (Molecular Research Center, Inc.). RNAs were reverse transcribed using EasyScript Reverse Transcriptase (Transgen Biotech). Then, cDNA was amplified by PCR or qPCR with the primers listed in Table 2. qPCR was performed with SYBR TOPreal qPCR 2× preMIX (Enzynomics) to determine transcript abundance. Transcript quantity was calculated using the ΔΔCt method, and Hprt or HPRT1 levels were used as housekeeping controls. The log 2 (fold change) value of the cartilage stromal gene of mouse articular chondrocytes treated with siRNA was clustered using a hierarchical clustering algorithm (mean association and central correlation distance) in 1.0.4 R package. PCA was performed using the same R package.
Whole-cell lysate preparation. Whole-cell lysates were prepared in RIPA buffer (150 mM NaCl, 1% NP-40, 50 mM Tris, pH 8.0, 0.5% sodium deoxycholate, 0.1% SDS) supplemented with a protease inhibitor cocktail (Sigma-Aldrich).

[2] = test system: mouse limb-bud mesenchymal cells; experiment: Mouse limb-bud micromass culture, Alcian Blue staining; format: cell-based; settings: micromass cultures, treated 3 days
Method: Mouse limb-bud micromass culture. For the micromass culture of mesenchymal cells, limb-bud cells were isolated from E11.5 ICR mouse embryos. 2.0×10^7 cells/ml were suspended in DMEM supplemented with 10% FBS, 100 units/ml penicillin, and 100 μg/ml streptomycin, and 15-μ1 drops were spotted on culture dishes. After 24 h, cells were treated as indicated for 3 days and subjected to Alcian Blue staining.

[3] = test system: articular cartilage of DMM-operated mouse; experiment: Experimental OA in mice (DMM surgery), intra-articular hydrogel drug delivery; format: in vivo; settings: for degeneration of cartilage matrix caused by DMM (Safranin O staining, OARSI grade): IA administration in hydrogel, 10 nmol drug
Method: Preparation of hydrogels and in vivo confirmation of controlled release of embedded molecules. 6-O-Palmitoyl-l-ascorbic acid (76183) was purchased from Sigma-Aldrich. […] PBS-suspended hydrogel (10 μl, PBS:hydrogel=1:1) containing 50 pmol DiD was administered intra-articularly, and at 1-9 days post-injection, light-emitting diode (LED) and fluorescence images of knee joints were obtained. LuminoGraph II (Atto) was used to acquire the images.
Experimental OA in mice. Eight-week-old male ICR mice were used for experimental OA. Experimental OA was induced by DMM (Destabilization of the medial meniscus) surgery on the right hindlimb, and sham surgery was conducted on the left hindlimb as a control (Glasson, S. S., Blanchet, T. J. & Morris, E. A. The surgical destabilization of the medial meniscus (DMM) model of osteoarthritis in the 129/SvEv mouse. Osteoarthritis Cartilage 15, 1061-1069, doi:10.1016/j.joca.2007.03.006 (2007)). 10 μl of PBS-suspended hydrogel (PBS:hydrogel=1:1) containing vehicle or 10 nmol drugs was administered intra-articularly.
Histology and immunohistochemistry. Mouse and rat knee joint samples and human cartilage samples were fixed with 4% paraformaldehyde overnight at 4° C. All samples were […] for 2-4 weeks 0.5M EDTA, pH 7.4 at 4° C. and embedded in paraffin. Mouse and rat paraffin blocks were sectioned at a thickness of 6 μm, and human paraffin blocks were sectioned to a thickness of 5 μm. […] Cartilage regeneration in osteochondral defect model was scored according to the International Cartilage Repair Society (ICRS) scoring system (Haikarainen, T., Krauss, S. & Lehtio, L. Tankyrases: structure, function and therapeutic implications in cancer. Curr Pharm Des 20, 6472-6488 (2014) and Mainil-Varlet, P. et al. Histological assessment of cartilage repair: a report by the Histology Endpoint Committee of the International Cartilage Repair Society (ICRS). J Bone Joint Surg Am 85-A Suppl 2, 45-57 (2003)) by three blinded observers.

[4] = test system: mouse chondrocytes; experiment: RNA sequencing and gene set enrichment analysis of treated chondrocytes; format: cell-based; settings: drugs 10 μM for 108 h vs vehicle; siRNAs vs control siRNA
Method: RNA sequencing (RNA-seq). Primary cultured mouse articular chondrocytes were treated with DMSO or 10 μM of XAV939 or IWR-1 for 108 h or transfected with control siRNA or Tnks and Tnks2 siRNAs. Three biological replicates were used for each group. One microgram of high-quality RNA samples (RIN>7.0) were used to construct RNA-seq libraries with the TruSeq Stranded mRNA Library Prep kit (Illumina). Libraries were validated with an Agilent 2100 Bioanalyzer. RNA-seq was performed on an Illumina HiSeq 2500 sequencer at Macrogen. The sequence reads were trimmed with Trimmomatic^86 and mapped against the mouse reference genome (mm10) using TopHat. Read counts per gene were calculated using HTSeq^88. Differential expression analysis was conducted using the DESeq2 R package^89. DEGs were selected using a |fold change| cutoff of >3 and a FDR q cutoff of <1×10^−5. DEGs at least one condition were clustered with hierarchical clustering algorithm (ward.D linkage with euclidean distance) using gplots R package. GO analysis was conducted using Enrichr^90. Heatmaps of DEGs that are in the cartilage-signature gene set or the osteoarthritis-signature gene sets were drawn with Gitools.
GSEA analysis. Genes were ranked according to the shrunken log2 fold change calculated via DESeq2. […]

Cc1cc(/C=C2\SC(=O)N(c3ccccc3)C2=O)c(C)n1-c1cccnc1 [iCRT 1429]
expression of cartilage matrisome ([1]; β-catenin inhibition in chondrocytes (FIG. 2e, f, g), iCRT 14 for 24 h): did not significantly affect the expression of cartilage matrisome

C[C@]1(c2nc3c(C(N)=O)cccc3[nH]2)CCCN1 [ABT-888]
expression of cartilage-specific matrix genes [1]: failed to increase their expressions

O=C(Nc1cccc2cccnc12)c1ccc(N2C(=O)C3C4C=CC(C4)C3C2=O)cc1 (centres unmarked) [IWR-1, 4-(1,3,3a,4,7,7a-Hexahydro-1,3-dioxo-4,7-methano-2H-isoindol-2-yl)-N-8-quinolinyl-Benzamide]
chondrogenic nodule formation [2]: effectively induced chondrogenic nodule formation | degeneration of cartilage matrix caused by DMM (Safranin O staining, OARSI grade) [3]: significant reduction in the degeneration of cartilage matrix | enrichment of cartilage-signature genes in whole transcriptome (GSEA) [4]: positively enriched | expression of cartilage-specific matrix genes [1]: increased the expression of cartilage-specific matrix genes

O=c1[nH]c(-c2ccc(C(F)(F)F)cc2)nc2c1CSCC2 [XAV939, 3,5,7,8-Tetrahydro-2-[4-(trifluoromethyl)phenyl]-4H-thiopyrano[4,3-d]pyrimidin-4-one]
chondrogenic nodule formation [2]: effectively induced chondrogenic nodule formation | degeneration of cartilage matrix caused by DMM (Safranin O staining, OARSI grade) [3]: significant reduction in the degeneration of cartilage matrix | cartilage destruction in late-stage OA (Safranin O staining, OARSI grade) ([3]; treatment started 6 weeks after DMM surgery, for additional 6 weeks, compared with vehicle-treated mice): reduction in the cartilage destruction | enrichment of cartilage-signature genes in whole transcriptome (GSEA) [4]: positively enriched | expression of cartilage-specific matrix genes [1]: increased the expression of cartilage-specific matrix genes

Reference: US20210353681A1, “USE OF TNKS INHIBITORS FOR REGENERATION OF CARTILAGE” (SEOUL NATIONAL UNIVERSITY R&DB FOUNDATION, priority 2020, published 2021)
